Data: PubChem BioAssay AID2060363 (Molecular Pharmacology Branch, DTP, NCI, 2025)
Where “and” joins values, the source holds several entries; their conditions need not be identical. Equal values may be shown once.

Test system: 156681-154-R-J1-PDC tumor spheroids, viability % test/control
Assay: Anticancer human tumor 156681-154-R-J1-PDC patient-derived melanoma cell line growth inhibition [TAK]
Settings: spheroids with HUVEC and MSC; for viability, T/C: stronger effect = lower value
Procedure, shortened: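 Drug combinations, each paired with TAK-243 or ipatasertib, were tested on multi-cell spheroids of 60% malignant cells, 25% HUVEC and 15% hMSC. Top concentrations were at or near the clinical Cmax (10 microM if undetermined), decreasing by half-log; viability is given as % test/control.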

[1] = curve of first compound, second compound 0.3 µM
[2] = curve of first compound, second compound 0.949 µM
[3] = curve of first compound, second compound 3 µM
[4] = curve of first compound, second compound 9.49 µM
[5] = curve of first compound, second compound 30 µM
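Note: spheroids exposed to compounds for 7 days before the endpoint.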

CC(=O)Nc1cccc(-n2c(=O)n(C3CC3)c(=O)c3c(Nc4ccc(I)cc4F)n(C)c(=O)c(C)c32)c1 + CC(C)NCC(C(=O)N1CCN(c2ncnc3c2C(C)CC3O)CC1)c1ccc(Cl)cc1
IC50 [1]: 3.28 nM
IC50 [2]: 3.04 nM
IC50 [3]: 1.39 nM
IC50 [4]: < 0.0949 nM
IC50 [5]: < 0.0949 nM
viability, T/C (second compound 0.3 µM, first compound 94.9 pM): 92%
viability, T/C (second compound 0.3 µM, first compound 0.0003 µM): 105%
viability, T/C (second compound 0.3 µM, first compound 0.000949 µM): 95.2%
viability, T/C (second compound 0.3 µM, first compound 0.003 µM): 53.3%
viability, T/C (second compound 0.3 µM, first compound 0.00949 µM): 11%
viability, T/C (second compound 0.3 µM, first compound 0.03 µM): 7.15%
viability, T/C (second compound 0.949 µM, first compound 94.9 pM): 88.9%
viability, T/C (second compound 0.949 µM, first compound 0.0003 µM): 89.2%
viability, T/C (second compound 0.949 µM, first compound 0.000949 µM): 84.2%
viability, T/C (second compound 0.949 µM, first compound 0.003 µM): 50.8%
viability, T/C (second compound 0.949 µM, first compound 0.00949 µM): 8.92%
viability, T/C (second compound 0.949 µM, first compound 0.03 µM): 6.03%
viability, T/C (second compound 3 µM, first compound 94.9 pM): 72.3%
viability, T/C (second compound 3 µM, first compound 0.0003 µM): 69.3%
viability, T/C (second compound 3 µM, first compound 0.000949 µM): 63.6%
viability, T/C (second compound 3 µM, first compound 0.003 µM): 22.9%
viability, T/C (second compound 3 µM, first compound 0.00949 µM): 7.24%
viability, T/C (second compound 3 µM, first compound 0.03 µM): 2.71%
viability, T/C (second compound 9.49 µM, first compound 94.9 pM): 43.4%
viability, T/C (second compound 9.49 µM, first compound 0.0003 µM): 43.6%
viability, T/C (second compound 9.49 µM, first compound 0.000949 µM): 31.1%
viability, T/C (second compound 9.49 µM, first compound 0.003 µM): 13%
viability, T/C (second compound 9.49 µM, first compound 0.00949 µM): 3.14%
viability, T/C (second compound 9.49 µM, first compound 0.03 µM): 0.73%
viability, T/C (second compound 30 µM, first compound 94.9 pM): 17.9%
viability, T/C (second compound 30 µM, first compound 0.0003 µM): 18.9%
viability, T/C (second compound 30 µM, first compound 0.000949 µM): 11.8%
viability, T/C (second compound 30 µM, first compound 0.003 µM): 4.9%
viability, T/C (second compound 30 µM, first compound 0.00949 µM): 1.63%
viability, T/C (second compound 30 µM, first compound 0.03 µM): 0.28%

CC(=O)Nc1cccc(-n2c(=O)n(C3CC3)c(=O)c3c(Nc4ccc(I)cc4F)n(C)c(=O)c(C)c32)c1
viability, T/C (compound 94.9 pM): 102% and 101%
viability, T/C (compound 0.0003 µM): 105% and 111%
viability, T/C (compound 0.000949 µM): 100% and 102%
viability, T/C (compound 0.003 µM): 83.8% and 66.8%
viability, T/C (compound 0.00949 µM): 15.5% and 14.8%
viability, T/C (compound 0.03 µM): 8.87% and 8.9%
IC50 (curve of compound): 5.3 nM and 4.35 nM

Cc1nc(NC(=O)N2CCCC2C(N)=O)sc1-c1ccnc(C(C)(C)C(F)(F)F)c1 (configuration not stated) + CC(C)NCC(C(=O)N1CCN(c2ncnc3c2C(C)CC3O)CC1)c1ccc(Cl)cc1
IC50 [1]: > 10000 nM
IC50 [2]: 7110 nM
IC50 [3]: 1460 nM
IC50 [4]: < 31.6 nM
IC50 [5]: < 31.6 nM
viability, T/C (second compound 0.3 µM, first compound 0.0316 µM): 95.5%
viability, T/C (second compound 0.3 µM, first compound 0.1 µM): 99%
viability, T/C (second compound 0.3 µM, first compound 0.316 µM): 91%
viability, T/C (second compound 0.3 µM, first compound 1 µM): 71.5%
viability, T/C (second compound 0.3 µM, first compound 3.16 µM): 67.3%
viability, T/C (second compound 0.3 µM, first compound 10 µM): 51.4%
viability, T/C (second compound 0.949 µM, first compound 0.0316 µM): 85.8%
viability, T/C (second compound 0.949 µM, first compound 0.1 µM): 83.9%
viability, T/C (second compound 0.949 µM, first compound 0.316 µM): 79%
viability, T/C (second compound 0.949 µM, first compound 1 µM): 70.3%
viability, T/C (second compound 0.949 µM, first compound 3.16 µM): 62%
viability, T/C (second compound 0.949 µM, first compound 10 µM): 44.9%
viability, T/C (second compound 3 µM, first compound 0.0316 µM): 69.7%
viability, T/C (second compound 3 µM, first compound 0.1 µM): 67.9%
viability, T/C (second compound 3 µM, first compound 0.316 µM): 61.5%
viability, T/C (second compound 3 µM, first compound 1 µM): 53.8%
viability, T/C (second compound 3 µM, first compound 3.16 µM): 42.5%
viability, T/C (second compound 3 µM, first compound 10 µM): 30.6%
viability, T/C (second compound 9.49 µM, first compound 0.0316 µM): 39.5%
viability, T/C (second compound 9.49 µM, first compound 0.1 µM): 35.6%
viability, T/C (second compound 9.49 µM, first compound 0.316 µM): 36.6%
viability, T/C (second compound 9.49 µM, first compound 1 µM): 26.8%
viability, T/C (second compound 9.49 µM, first compound 3.16 µM): 17.2%
viability, T/C (second compound 9.49 µM, first compound 10 µM): 7.68%
viability, T/C (second compound 30 µM, first compound 0.0316 µM): 18%
viability, T/C (second compound 30 µM, first compound 0.1 µM): 18%
viability, T/C (second compound 30 µM, first compound 0.316 µM): 11.3%
viability, T/C (second compound 30 µM, first compound 1 µM): 8.89%
viability, T/C (second compound 30 µM, first compound 3.16 µM): 3.83%
viability, T/C (second compound 30 µM, first compound 10 µM): 0.52%
